{"source": "patent US20070224273A1", "about": "“Multifunctional Supramolecular Hydrogels as Biomaterials” (priority 2004, published 2007)", "key": {"[1]": {"assay": "Artificial enzyme (hemin) activity assay, oxidation of pyrogallol by H2O2", "assay_type": "biochemical", "procedure": "Activity assay: Using the oxidation of pyrogallol (10.0 mM) by H2O2 (40.0 mM) as a model reaction and fixing the total concentration of Hemin to 5 μM in the mixture, we examined the activity of Hemin by monitoring the absorbance (420 nm) of purpurogallin, the product of Hemin-catalyzed oxidation of pyrogallol. The catalytic reaction course of the artificial enzyme was measured by monitoring the increase in absorbance along with time change. The absorbance increase in the first minute was defined to be the initial rate. The Lineweaver-Burk plots constructed by the reaction initial rates at different pyrogallol concentrations were used to estimate their kinetic constant values. The other substrates, including o-phenyldiamine (product absorption at 450 nm) and o-aminophenol (product absorption at 430 nm), were employed under the same procedure of pyrogallol.\nUsing the oxidation of pyrogallol as a model reaction and fixing the total concentration of Hemin to be 5 μM in the mixture, we obtained the catalytic rate of Hemin by monitoring the changes of the absorbance of purpurogallin, the product of Hemin-catalyzed oxidation of pyrogallol. […] The Lineweaver-Burk plots constructed by the reaction initial rates at different pyrogallol concentrations gave the activity of the artificial enzyme. The kinetics of the catalysis of artificial enzyme follows Michaelis-Menten equation, which indicated successful design and generation of an artificial peroxidase by encapsulating hemin into hydrogel. […] Two factors likely contribute to the high activity of Hemin(Phe) in pH 7,4 buffer: (i) localization of hemin on the nanofibers preserves the catalytic species—monomeric hemin; (ii) the mesoporous structure in hydrogel facilitates the substrate across the hydrogel network to access the hemin in the hydrogel."}, "[2]": {"assay": "Hydrogelation in water (ability, concentration, pH)", "assay_type": "physicochemical", "experimental": "Typically, after 2 mg of 1 was suspended in 1.0 mL of water, the increase of temperature to 80° C. gave a clear solution. Cooling the solution to room temperature led to a slightly opaque hydrogel (Gel I, FIG. 20A). Similar procedure afforded the hydrogel of 2 (Gel II, FIG. 20B)."}, "[3]": {"assay": "Solubility in water of pentapeptide derivatives", "assay_type": "physicochemical", "from_the_text": "Most of the compounds can gel water under appropriate pH. When the pH becomes higher than the listed value, the gel tends to become a clear solution, while a lower pH always leads to precipitation rather than homogeneous gel formation. GAGAS (SEQ ID No. 1), the epitope with the least bulk side chains, appears to be quite hydrophilic in water.\nHowever, it is still not a good candidate as a hydrophilic tail in a hydrogelator. […] Hydrogel by Fmoc-GVGVP can be obtained by carefully adjusting the pH to 4.8, with the hydrogel not being thermal-reversible. […] Upon heating, it also melts. All three compounds, with VPGVG as the hydrophilic part, fail to gel water at the tested condition. They all show sharp solubility changes with pH and low melting points."}, "[4]": {"tested_on": "acid phosphatase", "assay": "Visual hydrogelation assay for enzyme inhibitors (conversion of 9 to 10)", "assay_type": "biochemical", "conditions": "pH=6.0, 37° C., solution-to-gel transition after 30 minutes", "from_the_text": "FIG. 6 illustrates the design of the visual assay. The precursor, which acts as the substrate of an enzyme, transforms into a hydrogelator when the enzyme catalyzes its conversion. Then, the self-assembly of the hydrogelators in water induces the formation of hydrogel. When inhibitors competitively bind with the active site of the enzyme and block the conversion of the precursor catalyzed by the enzyme, no hydrogel forms. Therefore, the macroscopic solution-to-gel transition (which can be observed visually) of the solution of the precursor reports the inactivation of the enzyme by the inhibitors.\nThis approach has a unique feature—it enlists water molecules as part of the reporting system. In addition, no spectrometer is required for observing the solution-to-gel phase transition. This simple and inexpensive method may be useful, not only for screening the inhibitors but also, for detecting the presence of enzymes when appropriate precursors are used. To verify the feasibility of the design shown in FIG. 6, a simple amino acid derivative (9), which can be converted into a hydrogelator (10) by dephosphorylation, was used to screen the inhibitors for an acid phosphatase.\nSince the acid phosphatase catalyzes the conversion of 9 to 10 and leads to hydrogelation at a pH=6.0 and 37° C., the event of hydrogelation can indicate the activity of inhibitors for the acid phosphatase itself. Pamidronate disodium, Zn^2+, and sodium orthovanadate (Na3VO4) were chosen to estimate their minimum inhibition concentrations for the acid phosphatase. The three compounds were first mixed with the enzyme at a series of concentrations, respectively, followed by the addition of 9 to the solutions 10 minutes after mixing. After an additional 30 minutes of incubation, the solution-to-gel phase transition indicates the minimum inhibition concentration of the compounds. From the changes of rows 2, 3, and 4 in FIG. 7, the minimum inhibition concentrations of Pamidronate disodium, Zn^2+, and sodium orthovanadate (Na3VO4) for the acid phosphatase were determined to be 33 mM, 0.33 mM, and 3.3 mM, respectively."}, "[5]": {"assay": "Solution of precursor 3, sample G (only water, no enzyme)", "assay_type": "biochemical", "conditions": "precursor 3 to form 1 after 6 hours", "procedure": "(§1) To evaluate whether precursor 3 would respond to β-lactamases in bacteria, solution of precursor 3 was treated with sonicated lysates of E. coli."}, "[6]": {"target": "T1, CTX-M14 (extended-spectrum β-lactamase) (Escherichia coli, UniProt Q9L5C7)", "T1 construct": "endogenous in cells; host or cells: E. coli (sonicated lysate)", "T1 sequence (Q9L5C7 entry or part of it)": "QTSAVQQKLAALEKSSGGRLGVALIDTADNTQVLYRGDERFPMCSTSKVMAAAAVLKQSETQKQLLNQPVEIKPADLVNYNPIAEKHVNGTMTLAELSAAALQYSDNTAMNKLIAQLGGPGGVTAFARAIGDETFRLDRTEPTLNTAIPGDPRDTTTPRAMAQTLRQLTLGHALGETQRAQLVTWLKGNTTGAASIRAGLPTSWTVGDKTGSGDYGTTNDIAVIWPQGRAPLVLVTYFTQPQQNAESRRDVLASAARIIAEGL", "assay": "Cell lysate added to solution of precursor 3, sample C", "assay_type": "biochemical, E. coli", "procedure": "as §1"}, "[7]": {"target": "T2, SHV-1 (broad-spectrum β-lactamase) (Escherichia coli, UniProt P0AD63)", "T2 construct": "endogenous in cells; host or cells: E. coli (sonicated lysate)", "T2 sequence (P0AD63 22-286)": "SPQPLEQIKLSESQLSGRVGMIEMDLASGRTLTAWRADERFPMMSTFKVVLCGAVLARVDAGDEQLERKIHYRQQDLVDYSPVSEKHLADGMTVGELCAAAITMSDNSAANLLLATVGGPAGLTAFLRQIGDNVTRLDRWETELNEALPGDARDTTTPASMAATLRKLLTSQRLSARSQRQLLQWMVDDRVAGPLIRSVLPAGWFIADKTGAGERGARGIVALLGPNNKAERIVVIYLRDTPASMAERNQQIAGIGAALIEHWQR", "assay": "Cell lysate added to solution of precursor 3, sample E", "assay_type": "biochemical, E. coli", "conditions": "lysate SHV-1", "procedure": "as §1"}, "[8]": {"tested_on": "CTX-M13 (extended-spectrum β-lactamase)", "assay": "Cell lysate added to solution of precursor 3, sample B", "assay_type": "biochemical, E. coli", "procedure": "as §1"}, "[9]": {"tested_on": "JP995 (β-lactamase negative E. coli control)", "assay": "Cell lysate added to solution of precursor 3, sample D", "assay_type": "biochemical", "conditions": "precursor 3 to form 1 after 6 hours", "procedure": "as §1"}, "[10]": {"tested_on": "C600 (β-lactamase negative E. coli control)", "assay": "Cell lysate added to solution of precursor 3, sample A", "assay_type": "biochemical", "conditions": "precursor 3 to form 1 after 6 hours", "procedure": "as §1"}, "[11]": {"tested_on": "β-lactamase", "experimental": "After obtaining the precursor 3, we tested if a β-lactamase would trigger hydrogelation. Precursor 3 (1.75 mg) dissolved in water (0.50 mL, pH=8.0) to form a viscous solution (FIG. 18A)."}, "[12]": {"target": "T3, TEM-1 (broad-spectrum β-lactamase) (Escherichia coli, UniProt P62593)", "T3 construct": "endogenous in cells; host or cells: E. coli (sonicated lysate)", "T3 sequence (P62593 24-286 limits assumed)": "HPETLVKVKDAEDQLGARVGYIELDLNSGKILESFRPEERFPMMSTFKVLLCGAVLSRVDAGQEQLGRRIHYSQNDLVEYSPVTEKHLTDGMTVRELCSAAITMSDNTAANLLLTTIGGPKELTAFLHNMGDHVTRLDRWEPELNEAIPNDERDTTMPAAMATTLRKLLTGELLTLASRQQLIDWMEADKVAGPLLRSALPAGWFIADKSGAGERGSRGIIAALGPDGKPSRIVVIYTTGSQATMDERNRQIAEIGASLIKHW", "assay_type": "biochemical, E. coli", "conditions": "lysate TEM-1", "procedure": "as §1"}, "[13]": {"conditions": "precursor 3 to form 1 after 6 hours"}}, "note": "Peptide text beside a SMILES is read from it. * marks the point of attachment. Butanoyl(4-pyren-1-yl) = O=C(CCCc1ccc2ccc3cccc4ccc1c2c34)*; Acetyl(1-naphthyl) = O=C(Cc1cccc2ccccc12)*", "data": [{"smiles": "C=CC1=C(C)c2cc3[n-]c(cc4nc(cc5[n-]c(cc1n2)c(C)c5CCC(=O)O)C(CCC(=O)O)=C4C)c(C)c3C=C.[Cl-].[Fe+3]", "note": "[Hemin(Free), hemin chloride]", "values": [{"measurement": "retention of catalytic ability during reaction", "setting": "[1]; 15 minutes course, water buffer and toluene", "value": "lost most catalytic ability after 5 min"}, {"measurement": "kcat in buffer", "setting": "[1]; buffer (0.01 M, pH 7.4, phosphate)", "value": 0.04, "unit": "s⁻¹"}, {"measurement": "kcat in toluene", "setting": "[1]; toluene", "value": 0.045, "unit": "s⁻¹"}]}, {"smiles": "O=C(Cc1ccc2ccccc2c1)NC1C(O)OC(CO)C(O)C1O", "note": "[Nap-D-Glucosamine]", "values": [{"measurement": "ability to gel water / form hydrogel", "setting": "[2]", "value": "fail to form supramolecular hydrogels"}]}, {"smiles": "O=C(Cc1ccc2ccccc2c1)NC(Cc1ccccc1)C(=O)NC(Cc1ccccc1)C(=O)NC1C(O)OC(CO)C(O)C1O", "note": "[Nap-L-Phe-L-Phe-D-Glucosamine]", "values": [{"measurement": "ability to gel water / form hydrogel", "setting": "[2]", "value": "fail to form supramolecular hydrogels"}]}, {"smiles": "C[C@H](NC(=O)CNC(=O)Cc1cccc2ccccc12)C(=O)NCC(=O)N[C@@H](C)C(=O)N[C@@H](CO)C(=O)O", "note": "[Naph-GAGAS] ({Acetyl(1-naphthyl)}-GAGAS-OH)", "values": [{"measurement": "solubility in water", "setting": "[3]", "value": "soluble in water even under low pH and high concentration"}]}, {"smiles": "CC(C)[C@H](NC(=O)CNC(=O)Cc1cccc2ccccc12)C(=O)NCC(=O)N[C@H](C(=O)N1CCC[C@H]1C(=O)O)C(C)C", "note": "[Naph-GVGVP] ({Acetyl(1-naphthyl)}-GVGVP-OH)", "values": [{"measurement": "solubility in water", "setting": "[3]", "value": "either dissolves in water at a pH higher than 4 or becomes a suspension at a lower pH"}]}, {"smiles": "NCCC(O)(P(=O)(O)O)P(=O)(O)O", "note": "[Pamidronate disodium]", "values": [{"measurement": "minimum inhibition concentration", "setting": "[4]", "value": 33, "unit": "mM"}]}, {"smiles": "NCC(=O)N[C@@H]1C(=O)N2C(C(=O)O)=C(CSCCNC(=O)[C@H](Cc3ccccc3)NC(=O)[C@H](Cc3ccccc3)NC(=O)Cc3ccc4ccccc4c3)CS[C@H]12", "note": "[Precursor 3]", "values": [{"measurement": "Conversion (%)", "setting": "[5]", "value": "<0.5", "unit": "%"}, {"measurement": "Conversion (%)", "setting": "[5]; listed as precursor 3", "value": "< 0.5", "unit": "%"}, {"measurement": "Gelation", "setting": "[6]; precursor 3 0.35 wt %", "value": "+ (Gels form in less than 2 hours)"}, {"measurement": "Conversion (%)", "setting": "[6]; [13]", "value": 99.5, "unit": "%"}, {"measurement": "Gelation", "setting": "[7]; precursor 3 0.35 wt %", "value": "+ (Gels form in less than 2 hours)"}, {"measurement": "Conversion (%)", "setting": "[7]; [13]", "value": 65.2, "unit": "%"}, {"measurement": "Gelation", "setting": "[8]; precursor 3 0.35 wt %", "value": "+ (Gels form in less than 2 hours)"}, {"measurement": "Conversion (%)", "setting": "[8]; [13]", "value": 99.7, "unit": "%"}, {"measurement": "Conversion (%)", "setting": "[9]", "value": 5.8, "unit": "%"}, {"measurement": "Conversion (%)", "setting": "[10]", "value": "<0.5", "unit": "%"}, {"measurement": "Conversion (%)", "setting": "[10]; listed as precursor 3", "value": "< 0.5", "unit": "%"}, {"measurement": "start of hydrogelation (dynamic time sweep)", "setting": "[11]; after addition of the β-lactamases", "value": "about 22 minutes"}, {"measurement": "precursor 3 transformed into 1 (HPLC)", "setting": "[11]; one hour after addition of β-lactamase, room temperature", "value": 49.0, "unit": "%"}, {"measurement": "conversion of 3 to 1 (HPLC)", "setting": "[11]; β-lactamase and its inhibitor (clavulanic acid), after 12 hours", "value": 3.4, "unit": "%"}, {"measurement": "Gelation", "setting": "[12]; precursor 3 0.35 wt %", "value": "+ (Gels form in less than 2 hours)"}, {"measurement": "Conversion (%)", "setting": "[12]; [13]", "value": 84.3, "unit": "%"}]}, {"smiles": "CC(C)[C@H](NC(=O)CCCc1ccc2ccc3cccc4ccc1c2c34)C(=O)N[C@@H](Cc1ccc(O)cc1)C(=O)NCC(=O)NCC(=O)NCC(=O)O", "note": "[Pyrene-VYGGG] ({Butanoyl(4-pyren-1-yl)}-VYGGG-OH)", "values": [{"measurement": "solubility in water", "setting": "[3]", "value": "insoluble in water even under basic conditions"}]}, {"smiles": "[Zn+2]", "note": "[Zn^2+]", "values": [{"measurement": "minimum inhibition concentration", "setting": "[4]", "value": 0.33, "unit": "mM"}]}, {"smiles": "O=C(O)[C@H]1/C(=C/CO)O[C@@H]2CC(=O)N21", "note": "[clavulanic acid, reference compound]", "values": [{"measurement": "hydrogel formation with β-lactamase and inhibitor", "setting": "[11]; precursor 3 added to β-lactamase and inhibitor", "value": "failed to yield a hydrogel"}]}, {"smiles": "[Na+].[Na+].[Na+].[O]=[V]([O-])([O-])[O-]", "note": "[sodium orthovanadate]", "values": [{"measurement": "minimum inhibition concentration", "setting": "[4]", "value": 3.3, "unit": "mM"}]}]}
